From ChEMBL document CHEMBL1126869, “Conformational analysis of a highly potent dicyclic gonadotropin-releasing hormone antagonist by nuclear magnetic resonance and molecular dynamics” (1993)
Bridge positions count the residues as written; N and C are the ends. Square brackets hold non-standard residues; d marks the D form. Peptide text beside a SMILES is read from it. dPhe(4-Cl) = N[C@H](Cc1ccc(Cl)cc1)C(=O)O; d2Nal = N[C@H](Cc1ccc2ccccc2c1)C(=O)O; Dap = NC[C@H](N)C(=O)O

Assay: Biological potency in the anti-ovulatory assay in rat (dosage rats ovulating/total rats)
Format: functional

Point of comparison: CC(=O)N[C@H](Cc1ccc2ccccc2c1)C(=O)N[C@H](Cc1ccc(Cl)cc1)C(=O)N[C@H](Cc1c[nH]c2ccccc12)C(=O)N[C@H]1CC(=O)NC[C@@H](C(N)=O)NC(=O)[C@@H]2CCCN2C(=O)[C@@H]2CCCCNC(=O)CC[C@H](NC1=O)C(=O)N[C@H](CCCN=C(N)N)C(=O)N[C@@H](CC(C)C)C(=O)N2 (Ac-[d2Nal][dPhe(4-Cl)][dW]DE[dR]LKP[Dap]-NH2; lactam 4-10, 5-8), Dosage 5 µg. Against it:
- CC(=O)N1CCC[C@H]1C(=O)N[C@H](Cc1ccc(F)cc1)C(=O)N[C@H](Cc1c[nH]c2ccccc12)C(=O)N[C@H]1CC(=O)NC[C@@H](C(N)=O)NC(=O)[C@@H]2CCCN2C(=O)[C@H](CCCN=C(N)N)NC(=O)[C@H](CC(C)C)NC(=O)[C@@H](Cc2ccc3ccccc3c2)NC(=O)[C@H](Cc2ccc(O)cc2)NC1=O — higher, 10 µg
- CC(C)C[C@@H]1C(=O)N[C@@H](CCCN=C(N)N)C(=O)N2CCC[C@@H]2C(=O)NCCC(=O)N2CCC[C@@H]2C(=O)N[C@@H](Cc2ccc(Cl)cc2)C(=O)N[C@H](Cc2c[nH]c3ccccc23)C(=O)N[C@@H](CO)C(=O)N[C@H](Cc2ccc(O)cc2)C(=O)N[C@@H](Cc2c[nH]c3ccccc23)C(=O)N1C — higher, 1000 µg
